Experimental data as given in ChEMBL document CHEMBL5625242, “Discovery of brain permeable 2-Azabicyclo[2.2.2]octane sulfonamides as a novel class of presenilin-1 selective γ-secretase inhibitors” (Eur J Med Chem, 2023).
≈ marks a conversion by molar mass, not a printed value.

Tests used:
Cytochrome P450 2C9 = Cytochrome P450 2C9 (Homo sapiens, UniProt P11712); assay: Inhibition of human CYP2C9 using tolbutamide as substrate by fluorescence based assay; format: ADME
[1] = Free fraction in rat brain homogenate at 5 uM incubated for 5 hrs by HPLC-MS/MS analysis; format: ADME, tissue-based
Cytochrome P450 2C8 = molecular target: T1, Cytochrome P450 2C8 (Homo sapiens, UniProt P10632); assay: Inhibition of human CYP2C8 using amodiaquine as substrate by fluorescence based assay; format: ADME
T1 sequence (P10632 whole entry): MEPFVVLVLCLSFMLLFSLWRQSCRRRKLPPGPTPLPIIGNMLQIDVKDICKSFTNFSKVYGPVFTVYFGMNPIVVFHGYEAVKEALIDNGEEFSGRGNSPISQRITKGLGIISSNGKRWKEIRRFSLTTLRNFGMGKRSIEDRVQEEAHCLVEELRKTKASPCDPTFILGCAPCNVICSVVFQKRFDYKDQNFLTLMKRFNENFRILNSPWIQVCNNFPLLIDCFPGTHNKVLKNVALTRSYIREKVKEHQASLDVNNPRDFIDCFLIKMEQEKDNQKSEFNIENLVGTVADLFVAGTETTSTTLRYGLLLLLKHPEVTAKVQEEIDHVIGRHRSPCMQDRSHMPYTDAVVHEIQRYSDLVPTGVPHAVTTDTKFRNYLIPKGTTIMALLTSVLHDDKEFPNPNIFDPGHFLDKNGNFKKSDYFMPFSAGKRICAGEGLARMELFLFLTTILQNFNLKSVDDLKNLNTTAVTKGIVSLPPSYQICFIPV

calcium channel = assay: Inhibition of rat calcium channel; format: toxicity
Cytochrome P450 2C19 = Cytochrome P450 2C19 (Homo sapiens, UniProt P33261); assay: Inhibition of human CYP2C19 using S-mephenytoin as substrate by fluorescence based assay; format: ADME
Sequence of Cytochrome P450 2C19 (P33261 whole entry): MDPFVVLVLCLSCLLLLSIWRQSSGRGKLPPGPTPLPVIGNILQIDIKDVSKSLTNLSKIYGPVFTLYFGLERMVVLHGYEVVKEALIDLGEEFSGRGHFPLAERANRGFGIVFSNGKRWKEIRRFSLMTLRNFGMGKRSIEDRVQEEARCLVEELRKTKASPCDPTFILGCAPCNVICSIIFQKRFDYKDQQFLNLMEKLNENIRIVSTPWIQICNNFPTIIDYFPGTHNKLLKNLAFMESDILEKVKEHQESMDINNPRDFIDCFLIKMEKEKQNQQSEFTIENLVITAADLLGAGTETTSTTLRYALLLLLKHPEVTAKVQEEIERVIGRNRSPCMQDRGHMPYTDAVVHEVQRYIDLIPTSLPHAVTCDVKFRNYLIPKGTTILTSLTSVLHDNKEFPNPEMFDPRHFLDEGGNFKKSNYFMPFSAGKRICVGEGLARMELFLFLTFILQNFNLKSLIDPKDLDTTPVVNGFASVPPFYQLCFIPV

[2] = Inhibition of human PSEN2/APH1B expressed in MEF cells with Psen1/2 double knockout/Aph1ABC triple knockout by ELISA; format: cell-based
[3] = Kinetic solubility of compound at pH 2; format: physicochemical; settings: buffer, read-out: Kinetic_solubility
[4] = MRT in CD-1 mouse at 30 mg/kg, po measured at 4 hrs post-dose; format: ADME, organism-based; settings: in vivo
[5] = Tmax in CD-1 mouse at 30 mg/kg, po measured at 4 hrs post-dose; format: ADME, organism-based; settings: in vivo
[6] = Ratio of drug concentration in brain to plasma of Swiss mouse at 2.5 mg/kg, iv measured at 5 mins post-dose; format: ADME, organism-based; settings: read-out: BPR
Cytochrome P450 3A4 = Cytochrome P450 3A4 (Homo sapiens, UniProt P08684); assay: Inhibition of human CYP3A4 using midazolam as substrate by fluorescence based assay; format: ADME
Sequence of Cytochrome P450 3A4 (P08684 whole entry): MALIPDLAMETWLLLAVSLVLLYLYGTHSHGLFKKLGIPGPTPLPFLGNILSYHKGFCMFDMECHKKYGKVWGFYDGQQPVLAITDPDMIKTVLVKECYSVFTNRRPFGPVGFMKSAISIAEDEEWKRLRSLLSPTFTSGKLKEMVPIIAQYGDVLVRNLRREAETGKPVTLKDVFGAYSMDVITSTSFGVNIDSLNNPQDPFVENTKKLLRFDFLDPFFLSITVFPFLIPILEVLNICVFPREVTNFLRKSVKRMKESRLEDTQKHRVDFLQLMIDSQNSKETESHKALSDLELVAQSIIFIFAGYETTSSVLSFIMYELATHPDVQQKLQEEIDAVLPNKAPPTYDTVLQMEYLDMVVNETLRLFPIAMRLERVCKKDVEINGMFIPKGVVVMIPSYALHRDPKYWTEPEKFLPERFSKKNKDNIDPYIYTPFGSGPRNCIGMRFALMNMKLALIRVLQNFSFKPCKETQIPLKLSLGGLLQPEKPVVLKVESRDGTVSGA

[7] = Kinetic solubility of compound at pH 4; format: physicochemical; settings: buffer, read-out: Kinetic_solubility
sodium channel = assay: Inhibition of rat sodium channel; format: toxicity
human MDR1 [8] = assay: Efflux ratio of apparent permeability basal to apical side over apical to basal side in MDCK cells transfected with human MDR1 at 5 uM by LC-MS/MS analysis; format: ADME, cell-based, Canis lupus familiaris; settings: dog
[9] = Protein binding in mouse plasma assessed as free fraction at 5 uM incubated for 4.5 hrs by HPLC analysis; format: ADME, cell-free
[10] = Inhibition of human PSEN1/APH1A expressed in MEF cells with Psen1/2 double knockout/Aph1ABC triple knockout by ELISA; format: cell-based
Cytochrome P450 2D6 = Cytochrome P450 2D6 (Homo sapiens, UniProt P10635); assay: Inhibition of human CYP2D6 using dextrometorphan as substrate by fluorescence based assay; format: ADME
Sequence of Cytochrome P450 2D6 (P10635 whole entry): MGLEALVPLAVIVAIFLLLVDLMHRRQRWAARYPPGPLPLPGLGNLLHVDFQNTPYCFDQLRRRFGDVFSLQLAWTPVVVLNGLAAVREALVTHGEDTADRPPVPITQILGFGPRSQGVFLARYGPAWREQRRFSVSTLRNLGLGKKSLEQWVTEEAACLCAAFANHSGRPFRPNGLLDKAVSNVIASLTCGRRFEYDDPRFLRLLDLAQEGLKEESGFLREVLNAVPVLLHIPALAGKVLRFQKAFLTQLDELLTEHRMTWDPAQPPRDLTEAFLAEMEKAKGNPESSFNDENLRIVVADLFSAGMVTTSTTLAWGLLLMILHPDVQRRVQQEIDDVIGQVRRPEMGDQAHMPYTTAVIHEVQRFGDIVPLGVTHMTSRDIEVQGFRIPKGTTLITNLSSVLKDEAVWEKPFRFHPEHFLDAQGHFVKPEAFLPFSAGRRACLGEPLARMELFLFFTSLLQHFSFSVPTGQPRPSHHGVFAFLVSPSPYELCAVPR

[11] = Inhibition of human PSEN1/APH1B expressed in MEF cells with Psen1/2 double knockout/Aph1ABC triple knockout by ELISA; format: cell-based
human MDR1 [12] = assay: Apparent permeability across apical to basal side in MDCK cells transfected with human MDR1 at 5 uM by LC-MS/MS analysis; format: ADME, cell-based, Canis lupus familiaris; settings: dog
[13] = Volume of distribution at steady state in CD-1 mouse at 30 mg/kg, po measured at 4 hrs post-dose; format: ADME, organism-based; settings: in vivo
[14] = Kinetic solubility of compound at pH 7.4; format: physicochemical; settings: buffer, read-out: Kinetic_solubility
[15] = Ratio of unbound drug concentration in brain to plasma in Swiss mouse at 2.5 mg/kg, iv measured at 5 mins post-dose; format: ADME, organism-based; settings: read-out: K(p,uu,brain)
[16] = Unbound drug concentration in Swiss mouse plasma at 2.5 mg/kg, iv measured at 5 mins post-dose; format: ADME, organism-based; settings: in vivo
[17] = Drug concentration in Swiss mouse plasma at 2.5 mg/kg, iv measured at 5 mins post-dose; format: ADME, organism-based
Cytochrome P450 1A2 = molecular target: T2, Cytochrome P450 1A2 (Homo sapiens, UniProt P05177); assay: Inhibition of human CYP1A2 using phenacetin as substrate by fluorescence based assay; format: ADME
T2 sequence (P05177 whole entry): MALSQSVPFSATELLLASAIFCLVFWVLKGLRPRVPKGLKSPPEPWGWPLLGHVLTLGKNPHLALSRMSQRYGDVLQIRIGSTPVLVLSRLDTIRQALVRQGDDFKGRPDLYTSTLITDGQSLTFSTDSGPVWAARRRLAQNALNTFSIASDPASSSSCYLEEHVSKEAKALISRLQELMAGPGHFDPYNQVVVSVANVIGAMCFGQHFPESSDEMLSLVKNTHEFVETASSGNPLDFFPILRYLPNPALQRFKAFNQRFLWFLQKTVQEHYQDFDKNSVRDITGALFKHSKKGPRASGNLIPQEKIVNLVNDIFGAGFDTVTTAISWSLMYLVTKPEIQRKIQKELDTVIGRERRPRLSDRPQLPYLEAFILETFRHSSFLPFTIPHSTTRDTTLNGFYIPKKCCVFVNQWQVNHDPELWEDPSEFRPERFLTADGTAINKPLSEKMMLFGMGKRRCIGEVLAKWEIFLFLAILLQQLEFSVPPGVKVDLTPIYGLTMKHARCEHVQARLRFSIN

[18] = AUClast in CD-1 mouse at 30 mg/kg, po measured at 4 hrs post-dose; format: ADME, organism-based; settings: in vivo
[19] = Drug concentration in Swiss mouse brain at 2.5 mg/kg, iv measured at 5 mins post-dose; format: ADME, organism-based; settings: read-out: Ct
[20] = AUC (0 to infinity) in CD-1 mouse at 30 mg/kg, po measured at 4 hrs post-dose; format: ADME, organism-based; settings: in vivo
[21] = Inhibition of human PSEN2/APH1A expressed in MEF cells with Psen1/2 double knockout/Aph1ABC triple knockout by ELISA; format: cell-based
[22] = molecular target: Voltage-gated inwardly rectifying potassium channel KCNH2 (Homo sapiens, UniProt Q12809); assay: Inhibition of hERG; format: toxicity
Sequence of Voltage-gated inwardly rectifying potassium channel KCNH2 (Q12809 whole entry): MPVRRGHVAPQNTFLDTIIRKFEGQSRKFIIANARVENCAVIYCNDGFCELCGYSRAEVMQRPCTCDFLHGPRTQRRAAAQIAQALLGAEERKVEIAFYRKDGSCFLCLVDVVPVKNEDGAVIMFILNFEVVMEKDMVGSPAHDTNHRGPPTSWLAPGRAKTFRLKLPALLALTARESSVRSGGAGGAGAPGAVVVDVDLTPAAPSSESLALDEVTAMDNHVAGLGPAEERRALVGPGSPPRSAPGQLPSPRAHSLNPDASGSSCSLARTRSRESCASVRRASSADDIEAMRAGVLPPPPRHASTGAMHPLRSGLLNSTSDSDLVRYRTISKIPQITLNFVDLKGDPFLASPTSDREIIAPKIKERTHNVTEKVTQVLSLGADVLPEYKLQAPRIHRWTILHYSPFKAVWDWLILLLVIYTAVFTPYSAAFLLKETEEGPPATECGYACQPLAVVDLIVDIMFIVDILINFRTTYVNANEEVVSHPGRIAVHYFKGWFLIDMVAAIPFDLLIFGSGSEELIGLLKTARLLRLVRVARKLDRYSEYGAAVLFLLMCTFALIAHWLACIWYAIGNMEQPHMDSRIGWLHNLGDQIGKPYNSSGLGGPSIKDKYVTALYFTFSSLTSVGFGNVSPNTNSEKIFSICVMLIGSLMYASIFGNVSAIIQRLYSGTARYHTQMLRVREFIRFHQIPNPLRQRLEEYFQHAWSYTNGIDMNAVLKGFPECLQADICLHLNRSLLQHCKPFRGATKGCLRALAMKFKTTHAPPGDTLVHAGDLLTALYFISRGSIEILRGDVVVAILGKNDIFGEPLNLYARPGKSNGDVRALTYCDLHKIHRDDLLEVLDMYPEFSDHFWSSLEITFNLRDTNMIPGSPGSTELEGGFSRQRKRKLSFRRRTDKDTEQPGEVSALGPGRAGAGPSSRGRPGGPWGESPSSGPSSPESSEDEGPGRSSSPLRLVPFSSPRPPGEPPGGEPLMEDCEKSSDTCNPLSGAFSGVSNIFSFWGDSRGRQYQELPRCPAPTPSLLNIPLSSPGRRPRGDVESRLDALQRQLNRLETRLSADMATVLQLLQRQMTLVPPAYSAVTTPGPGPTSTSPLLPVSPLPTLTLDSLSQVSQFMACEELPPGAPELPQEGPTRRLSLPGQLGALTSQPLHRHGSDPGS

[23] = Half life in CD-1 mouse at 30 mg/kg, po measured at 4 hrs post-dose; format: ADME, organism-based; settings: in vivo

Sequence of Cytochrome P450 2C9 (P11712 whole entry): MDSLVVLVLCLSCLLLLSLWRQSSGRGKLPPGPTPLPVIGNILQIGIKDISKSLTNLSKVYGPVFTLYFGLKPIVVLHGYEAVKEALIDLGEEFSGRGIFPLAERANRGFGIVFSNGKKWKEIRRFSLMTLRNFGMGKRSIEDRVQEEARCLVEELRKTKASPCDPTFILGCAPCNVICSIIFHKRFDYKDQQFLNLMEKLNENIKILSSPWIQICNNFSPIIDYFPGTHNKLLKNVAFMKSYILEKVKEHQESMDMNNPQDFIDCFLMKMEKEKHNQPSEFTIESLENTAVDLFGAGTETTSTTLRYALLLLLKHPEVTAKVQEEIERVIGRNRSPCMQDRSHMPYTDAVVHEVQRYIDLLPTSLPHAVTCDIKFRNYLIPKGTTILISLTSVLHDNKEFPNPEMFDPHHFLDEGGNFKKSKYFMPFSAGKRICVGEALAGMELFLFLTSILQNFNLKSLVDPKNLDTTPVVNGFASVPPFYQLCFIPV

IC50 (Cytochrome P450 2C9): > 10 µM
fraction unbound at 5 h, 5 µM [1]: 0.00115
IC50 (Cytochrome P450 2C8): > 10 µM
IC50 (Cytochrome P450 2C19): > 10 µM
IC50 [2]: 2.14 µM
solubility kinetic [3]: 13 µM (≈ 5.8 µg/mL)
MRT [4]: 27.2 min
Tmax [5]: 120 min
Kp at 5 min [6]: 5.4
IC50 (Cytochrome P450 3A4): 3 µM
solubility kinetic [7]: 12 µM (≈ 5.35 µg/mL)
efflux ratio at 5 µM (human MDR1 [8]): 1.95
fraction unbound at 4.5 h, 5 µM [9]: 0.00309
IC50 [10]: 0.019 µM
IC50 (Cytochrome P450 2D6): > 10 µM
IC50 [11]: 0.0055 µM
Papp A→B at 5 µM (human MDR1 [12]): 6.3 ×10⁻⁶ cm/s
Vdss [13]: 3.43 L/kg
solubility kinetic [14]: 18 µM (≈ 8.03 µg/mL)
Kp uu at 5 min [15]: 1.97
Cp(f) [16]: 2.1 ng/mL
concentration at 5 min [17]: 680 ng/mL
IC50 (Cytochrome P450 1A2): > 10 µM
AUC(0-t) at 4 h [18]: 163 ng·h/mL
concentration at 5 min [19]: 3620 ng/g
AUC [20]: 174 ng·h/mL
IC50 [21]: 1.95 µM
half-life [23]: 28.9 min
SMILES: O=S(=O)(c1ccc(Cl)cc1)N1[C@H]2CC[C@@H]([C@H]1c1ccc(C(F)(F)F)cc1)[C@@H](O)C2
IC50 (calcium channel): > 10 µM
IC50 (sodium channel): > 10 µM
IC50 [22]: > 10 µM
